This is an account of results in article PMC8096218, “Global RNA profiles show target selectivity and physiological effects of peptide-delivered antisense antibiotics” (Nucleic Acids Research, 2021).

Values joined by “and” are separate entries in the source; they are usually repeats but may differ in a detail not shown here. Equal entries are not always repeated.

Common to all, as to type: cell-based, Salmonella enterica serovar Typhimurium
One assay concerns acpP mRNA. Description: RNA-seq differential expression, target transcript. To be noted: 5 μM KFF-/RXR-constructs, 10 μM Tat-constructs, triplicates; for reduction in acpP transcript levels (RNA-seq): 15 min post treatment, ∼10^6 cfu/ml, versus water control; for logFC acpP: edgeR, versus water, 15 min. As to the method:
Bacterial overnight cultures were diluted 1:100 in fresh MHB and grown to OD600 0.5. The obtained cultures were diluted to ∼10^6 cfu/ml in non-cation-adjusted MHB. Afterward, the bacterial solution was transferred into low-binding 5 ml tubes (LABsolute) along with the 20× PNA, peptide or PPNA solution. The final concentrations were 5 μM for KFF- and RXR-PNAs, and 10 μM for Tat-PNAs. Equimolar concentrations were used for the respective peptide control conditions. As a negative control, cells were treated with the respective volume of sterile nuclease-free water, which was used as solvent for the test compounds.
A time kinetic was performed for subsequent northern blot analysis (5, 10, 15 min), in which the reaction was stopped at the indicated time points by using RNAprotect Bacteria (Qiagen). For RNA-seq analyses, adding RNAprotect Bacteria at 15 min post treatment stopped the reactions with the indicated PPNA constructs or the respective peptide. After vortexing for 5 s, the samples were incubated at room temperature for 10 min, followed by cell pelleting at 4°C and 21 100 ×g for 20 min. Pellets were directly used for RNA isolation or stored at –20°C (<2 days) until further processing. RNA was purified from bacterial pellets using isolation protocol #3, as described above (0.5 mg/ml lysozyme, miRNeasy).
DNase treatment, cDNA library preparation and sequencing was conducted at Vertis (Munich, Germany). The RNA samples were first fragmented using ultrasound (4 pulses of 30 s each at 4°C). Then, an oligonucleotide adapter was ligated to the 3′ ends of the RNA molecules. First-strand cDNA synthesis was performed using M-MLV reverse transcriptase and the 3′ adapter as primer. The first-strand cDNA was purified and the 5′ Illumina TruSeq sequencing adapter was ligated to the 3′ end of the antisense cDNA. The resulting cDNA was PCR-amplified to about 10–20 ng/μl using a high fidelity DNA polymerase. The cDNA was purified using the Agencourt AMPure XP kit (Beckman Coulter Genomics) and was analyzed by capillary electrophoresis. For Illumina NextSeq sequencing, the samples were pooled in approximately equimolar amounts. The cDNA pool was sequenced on an Illumina NextSeq 500 system using 75 bp read length.
Reads from the RNA-Seq experiments were trimmed, filtered and mapped against the S. enterica subsp. enterica serovar Typhimurium SL1344 reference genome and the three plasmids pSLT_SL1344, pCol1B9_SL1344 (other name is p2), and pRSF1010_SL1344 ([19]). BBDuk was applied to trim bases with a Phred quality score of <10, and adapters were removed simultaneously. Reads were then mapped against the reference genome using BBMap (v38.84) and then assigned genomic features, including both coding sequences and annotated sRNAs ([19],[29]) using the featureCounts method of the Subread (2.0.1) package.
All downstream analysis was performed using packages from the R/Bioconductor project. The raw read counts were imported and analyzed with edgeR (v3.30.0). Each set of PNA-peptide conjugate experiments (i.e. experiments with KFF, RXR and Tat peptide) was analyzed simultaneously. Genes with less than 14.6 counts per million (CPM) in at least three libraries were filtered. This cutoff value was calculated using 10/L, where L is the library size of the smallest sample (minimum library size) in millions.
Raw read counts were normalized by trimmed mean of M values (TMM) normalization. Differential expression analysis was conducted using edgeR ([31]). Estimation of quasi-likelihood (QL) dispersions was then run with the […] function. Then contrasts between all samples versus the water controls were created as input for the glmQLTest function.
Genes with an absolute fold change >2 and an adjusted P-value (Benjamini–Hochberg, ([32])) <0.001 were considered differentially expressed.

The test system of another assay is LT2 PhoP^C. Description: MIC determination by broth microdilution. Conditions: ∼10^5 cfu/ml; for increase in the MIC in the PhoP^C background compared to the wild-type strain: LT2 PhoP^C versus LT2 wt; for MIC in μM, LT2 PhoP^C: Table 3, three biological replicates. The protocol:
MIC values were determined by broth microdilution according to standard protocols with a few modifications ([26]). An overnight bacterial cell culture, supplemented with the appropriate antibiotic when needed, was diluted 1:100 in fresh MHB and grown to OD600 0.5. The obtained culture was diluted to ∼10^5 cfu/ml or 10^6 cfu/ml, as indicated, in non-cation-adjusted MHB. Subsequently, 190 μl bacterial solution was dispensed into a 96-well plate (Thermo Fisher Scientific) along with 10 μl of a 20x PPNA, PNA or peptide working solution. Growth was monitored by measuring the OD at 600 nm every 20 min in a Synergy H1 plate reader (Biotek) with continuous double-orbital shaking (237 cpm) at 37°C for 24 h.
Fig. S5. Growth k inetics for MIC determ ination of 10^5 cfu/m l Salmonella wt (LT 2) and its isogenic
Pho PC m utant in the presen ce of var ying co ncentra tio n s of the in dicat ed co njugat e s. ( A) KFF-acpP,
KFF-acpP-scram bled (scr) or KFF peptide in s erial dilutions from 10 µM to 0.3 µM. ( B) RXR- acpP,
RXR- acpP-scram bled (scr) or RXR peptide in serial dilutions from 10 µM to 0.3 µ M. ( C) T at-acpP,
T at-acpP-scram bled (scr) or T at peptide in serial dilutions from 20 µM to 0.6 µM. Data represent
the average of three biological replicates, error bars indicate standard error of the m ean (SEM).
(1 picture or pasted object on this page, not shown here)

Another assay relates to Salmonella wt. Description: Kinetics of bactericidal effects (cfu determination and spot assay). Conditions: ∼10^6 cfu/ml, 5 μM KFF-acpP, 5 μM RXR-acpP, 10 μM Tat-acpP versus scrambled counterparts; for time post treatment from which killing / reduced cfu/ml was visible: time points 15, 20, 40, 60, 120 min, performed three times. As to the method:
An overnight bacterial cell culture was diluted 1:100 in fresh MHB and grown to OD600 0.5. The obtained culture was diluted to approximately 10^6 cfu/ml in non-cation-adjusted MHB. Afterwards, aliquots of 10 μl were directly used as input condition for cfu determination and spot assay on LB agar plates. Regarding the latter, serial dilutions were prepared as indicated, to evaluate the alteration of living bacteria upon exposure to the different PPNAs. At the same time, 190 μl of this bacterial solution was placed into 2 ml eppendorf tubes along with 10 μl of a 20× on-target or scrambled PPNA solution, adjusting the indicated MICs. At the indicated time points post treatment, aliquots were used for cfu determination and spot assay.
Figure 3. Kinetics of bactericidal effects for (A) 5 μM KFF-acpP versus 5 μM KFF-acpP-scr, (B) 5 μM RXR-acpP versus 5 μM RXR-acpP-scr and (C) 10 μM Tat-acpP versus 10 μM Tat-acpP-scr against Salmonella wt (∼10^6 cfu/ml). After the indicated time points post treatment (15, 20, 40, 60, 120 min), aliquots of each sample were harvested to determine the number of viable cells over time (cfu/ml […]; left panels). Additional aliquots were subjected to spot assays on LB agar plates, including the indicated dilutions (right panels). The experiment was performed three times. Error bars indicate standard error of the mean.

In the case of “RXRRXRRXRRXRXB [RXR-acpP, RXR peptide conjugated to 10-mer antisense PNA against acpP]”, in the assay on acpP mRNA, the “reduction in acpP transcript levels (RNA-seq)” value (from here on “reduction”) was 4.5- to 5 fold and the “logFC acpP” value is reported as -2.35. Besides, in the assay with LT2 PhoP^C, the “increase in the MIC in the PhoP^C background compared to the wild-type strain” value came out at 2 fold and the “MIC in μM, LT2 PhoP^C” value was 2.5 µM. For the same sequence, in the assay with Salmonella wt, the “bactericidal effects (cfu/ml, spot assay)” value (from here on “bactericidal effects”) was “fast and strong killing”; the “time post treatment from which killing / reduced cfu/ml was visible” value is given as no less than 15 min.
“GRKKKRRQRRRYK [Tat-acpP, Tat peptide conjugated to 10-mer antisense PNA against acpP]”: in the assay with acpP mRNA, the “reduction” value was roughly 3 fold and the “logFC acpP” value is -1.6191. In the assay on LT2 PhoP^C, the “increase in the MIC in the PhoP^C background compared to the wild-type strain” value is “at least two to four times more resistant” and the “MIC in μM, LT2 PhoP^C” value is 10 µM. Also, in the assay on Salmonella wt, the “bactericidal effects” value is “time-delayed and less pronounced”; the “time post treatment from which killing / reduced cfu/ml was visible” value is given as no less than 40 min.
As for “KFFKFFKFFK [KFF-acpP, KFF peptide conjugated to 10-mer antisense PNA against the translational start site of acpP]”, in the assay on acpP mRNA, the “reduction” value is 4.5- to 5 fold and the “logFC acpP” value is listed as -2.241. In addition, the “MIC in μM, LT2 PhoP^C” value in the assay with LT2 PhoP^C was “did not influence the inhibitory activity and 1.25 μM”. In the assay on Salmonella wt, the “bactericidal effects” value was “fast and strong killing”; the “time post treatment from which killing / reduced cfu/ml was visible” value is recorded as no less than 15 min.
